Values of other authors as cited in US20190380987A1, “COMPOSITION AND METHOD FOR TREATING MUCOLYTIC AND INFLAMMATORY AIRWAY CONDITIONS” (priority 2018, published 2019).

Columns and labels:
CF patients = conditions: 2700 mg of oral NAC per day in divided doses of 900 mg, controls declined

CC(=O)N[C@@H](CS)C(=O)O [N-acetylcysteine]
solubility in alcohol (alcohol): soluble | solubility in chloroform (chloroform): practically insoluble | solubility in ether (ether): practically insoluble | solubility in water (water): soluble | lung function decline (CF patients): did not experience lung function decline
